Measurements as given in ChEMBL document CHEMBL5150037, “Synthesis and in vitro biological evaluation of 3-ethyl-1,5-naphthyridin-2(1H)-one derivatives as potent PARP-1 selective inhibitors and PARP-1 DNA trappers” (Bioorg Med Chem Lett, 2022).
pIC50: −log10 of the molar value.

What was measured:
[1] = target: T1, Poly [ADP-ribose] polymerase 2 (Homo sapiens, UniProt Q9UGN5); assay: Inhibition of PARP-2 (unknown origin) binding to DNA assessed as DNA trapping activity
[2] = test system: DLD-1; assay: Antiproliferative activity against human DLD-1 cells harbouring wild type BRCA assessed as inhibition of cell growth; type: functional, cell-based
[3] = target: T2, Poly [ADP-ribose] polymerase 1 (Homo sapiens, UniProt P09874); assay: Inhibition of PARP-1 (unknown origin)
[4] = target: T2, Poly [ADP-ribose] polymerase 1; assay: Inhibition of PARP-1 (unknown origin) binding to DNA assessed as DNA trapping activity
[5] = target: T1, Poly [ADP-ribose] polymerase 2; assay: Inhibition of PARP-2 (unknown origin)
[6] = test system: DLD-1; assay: Antiproliferative activity against human DLD-1 cells harbouring BRCA-2 mutant assessed as inhibition of cell growth; type: functional, cell-based

T2 sequence (P09874 whole entry): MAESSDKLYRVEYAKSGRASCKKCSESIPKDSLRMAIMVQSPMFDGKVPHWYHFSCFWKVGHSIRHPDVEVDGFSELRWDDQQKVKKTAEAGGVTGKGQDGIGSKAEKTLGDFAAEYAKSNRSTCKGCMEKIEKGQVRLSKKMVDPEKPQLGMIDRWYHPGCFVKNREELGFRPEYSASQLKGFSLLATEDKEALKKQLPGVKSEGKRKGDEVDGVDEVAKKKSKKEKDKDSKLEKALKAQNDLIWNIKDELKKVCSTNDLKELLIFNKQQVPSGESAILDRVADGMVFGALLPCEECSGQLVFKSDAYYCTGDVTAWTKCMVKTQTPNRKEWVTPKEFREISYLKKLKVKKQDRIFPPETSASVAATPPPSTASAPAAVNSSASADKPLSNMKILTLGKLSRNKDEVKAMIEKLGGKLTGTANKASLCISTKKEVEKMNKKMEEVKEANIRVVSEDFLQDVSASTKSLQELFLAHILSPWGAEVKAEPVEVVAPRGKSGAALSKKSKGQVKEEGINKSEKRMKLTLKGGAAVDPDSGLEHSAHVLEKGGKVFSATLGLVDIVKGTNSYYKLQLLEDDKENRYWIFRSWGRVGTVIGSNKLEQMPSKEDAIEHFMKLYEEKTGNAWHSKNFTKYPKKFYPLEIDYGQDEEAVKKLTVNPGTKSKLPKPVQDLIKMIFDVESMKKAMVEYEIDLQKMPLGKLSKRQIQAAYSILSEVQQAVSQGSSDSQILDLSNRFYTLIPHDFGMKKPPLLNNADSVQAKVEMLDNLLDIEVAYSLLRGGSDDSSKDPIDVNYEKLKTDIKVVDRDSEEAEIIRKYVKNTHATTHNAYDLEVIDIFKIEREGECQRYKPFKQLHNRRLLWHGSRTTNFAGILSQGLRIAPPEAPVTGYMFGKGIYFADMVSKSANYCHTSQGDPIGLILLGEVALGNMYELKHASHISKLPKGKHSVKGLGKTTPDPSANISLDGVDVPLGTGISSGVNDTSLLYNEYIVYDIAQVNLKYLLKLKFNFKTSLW
T1 sequence (Q9UGN5 whole entry): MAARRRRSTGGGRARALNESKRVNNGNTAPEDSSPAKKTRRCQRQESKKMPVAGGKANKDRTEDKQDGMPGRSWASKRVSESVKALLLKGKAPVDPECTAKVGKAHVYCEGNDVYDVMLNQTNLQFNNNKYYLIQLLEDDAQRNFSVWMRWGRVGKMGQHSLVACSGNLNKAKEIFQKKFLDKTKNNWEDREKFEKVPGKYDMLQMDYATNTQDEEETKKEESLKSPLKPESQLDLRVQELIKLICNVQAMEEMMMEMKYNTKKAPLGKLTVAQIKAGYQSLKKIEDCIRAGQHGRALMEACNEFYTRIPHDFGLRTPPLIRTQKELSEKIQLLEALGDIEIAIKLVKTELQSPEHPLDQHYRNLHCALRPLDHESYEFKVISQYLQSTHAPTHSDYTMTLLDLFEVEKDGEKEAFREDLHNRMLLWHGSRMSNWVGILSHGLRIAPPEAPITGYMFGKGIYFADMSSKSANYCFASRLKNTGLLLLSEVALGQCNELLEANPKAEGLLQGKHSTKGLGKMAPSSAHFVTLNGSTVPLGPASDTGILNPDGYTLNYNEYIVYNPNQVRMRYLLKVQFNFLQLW

| Structure (SMILES) | pIC50 [1] | pIC50 [2] | pIC50 [3] | pIC50 [4] | pIC50 [5] | pIC50 [6] |
| --- | --- | --- | --- | --- | --- | --- |
| CCc1cc2ncc(CN3CCN(c4ccc5cn[nH]c5n4)CC3)cc2[nH]c1=O | – | 4.81 | 9.39 | 8.32 | – | 6.40 |
| CCc1cc2ncc(CN3CCN(c4ccc(C(C)(C)O)nc4)CC3)cc2[nH]c1=O | 4.85 | – | 6.40 | < 5.60 | 6.35 | – |
| CCc1cc2ncc(CN3CCN(c4ccc5[nH]ncc5n4)CC3)cc2[nH]c1=O | 5.93 | – | 9.11 | 6.42 | 7.64 | – |
| CCc1cc2ncc(CN3CCN(c4ccc5nc(C(F)(F)F)[nH]c5n4)CC3)cc2[nH]c1=O | 5.85 | – | 8.59 | 6.61 | 7.22 | – |
| CCc1cc2ncc(CN3CCN(c4cnc5cn[nH]c5c4)CC3)cc2[nH]c1=O | 6.68 | – | 9.05 | 6.64 | 8.28 | – |
| CCc1cc2ncc(CN3CC4CC(C3)N4c3ccc(C(=O)NC)nc3)cc2[nH]c1=O | – | – | < 5.60 | < 5.60 | – | – |
| CCc1cc2ncc(CN3CCN(c4ccc(OC(F)F)nc4)CC3)cc2[nH]c1=O | 5.20 | 4.82 | 9.00 | 8.35 | 6.81 | 7.18 |
| CCc1cc2ncc(CN3CCN(c4ccc5oc(=O)[nH]c5c4)CC3)cc2[nH]c1=O | 6.00 | – | 8.70 | 7.98 | 7.06 | – |
| CCc1cc2ncc(CN3CCN(c4cc5c(cn4)NC(=O)CC5)CC3)cc2[nH]c1=O | 6.78 | – | 8.27 | 6.14 | 7.42 | – |
| CCc1cc2ncc(CN3CC4CCC(C3)N4c3ccc(C(=O)NC)nc3)cc2[nH]c1=O | – | – | 7.39 | < 5.60 | – | – |
| CCc1cc2ncc(CN3CCN(c4ccc5cc[nH]c5n4)CC3)cc2[nH]c1=O | 6.94 | – | 8.89 | 7.19 | 7.68 | – |
| CCc1cc2ncc(CN3CCN(c4ccc(C(N)C(F)(F)F)nc4)CC3)cc2[nH]c1=O (stereo not drawn) | 4.93 | – | – | < 5.60 | – | – |
| O=C(c1cc(Cc2n[nH]c(=O)c3ccccc23)ccc1F)N1CCN(C(=O)C2CC2)CC1 [OLAPARIB] | – | 4.63 | – | – | – | 6.76 |

Continued, values first:

| pIC50 [1] | pIC50 [2] | pIC50 [3] | pIC50 [4] | pIC50 [5] | pIC50 [6] | Structure (SMILES) |
| --- | --- | --- | --- | --- | --- | --- |
| 4.92 | 4.05 | 8.59 | 8.32 | 6.72 | 7.59 | CCc1cc2ncc(CN3CC(Nc4ccc(C(=O)NC)nc4)C3)cc2[nH]c1=O |
| 5.39 | – | 6.46 | < 5.60 | 6.31 | – | CCc1cc2ncc(CN3CCc4nc(C(=O)NC)ccc4C3)cc2[nH]c1=O |
| 5.03 | 3.99 | 9.03 | 8.79 | 7.17 | 7.36 | CCc1cc2ncc(CN3CCC(Nc4ccc(C(=O)NC)nc4)C3)cc2[nH]c1=O (stereo not drawn) |
| 4.42 | – | 7.40 | < 5.60 | 6.47 | – | CCc1cc2ncc(CN3C[C@@H]4C[C@H]3CN4c3ccc(C(=O)NC)nc3)cc2[nH]c1=O |
| 5.81 | 5.06 | 9.20 | 8.45 | 6.01 | 6.79 | CCc1cc2ncc(CN3CCN(c4ccc(C(=O)NC)c5nccn45)CC3)cc2[nH]c1=O |
| 5.52 | 4.36 | 9.31 | 8.73 | 6.88 | 8.32 | CCc1cc2ncc(CN3CC[C@@H](Nc4ccc(C(=O)NC)nc4)C3)cc2[nH]c1=O |
| 6.17 | 5.53 | 9.47 | 8.09 | 7.74 | 7.33 | CCc1cc2ncc(CN3CC4CN(c5ccc(C(=O)NC)nc5)CC4C3)cc2[nH]c1=O (stereo not drawn) |
| – | – | 7.92 | 6.80 | – | – | CCc1cc2ncc(CN3CC4(CCN(c5ccc(C(=O)NC)nc5)CC4)C3)cc2[nH]c1=O |
| 5.53 | – | 7.85 | 5.80 | 6.82 | – | CCc1cc2ncc(CN3CCN(c4cc5cccc(C(=O)NC)c5cn4)CC3)cc2[nH]c1=O |
| 6.08 | 4.55 | 9.23 | 8.53 | 8.05 | 6.79 | CCc1cc2ncc(CN3CC4(C3)CN(c3ccc(C(=O)NC)nc3)C4)cc2[nH]c1=O |
| 5.38 | 4.11 | 7.48 | 5.84 | 6.86 | < 5.60 | CCc1cc2ncc(CN3CC[C@H](Nc4ccc(C(=O)NC)nc4)C3)cc2[nH]c1=O |
| 5.69 | – | 7.12 | < 5.60 | 7.70 | – | CCc1cc2ncc(CN3CCn4c(cnc4C(=O)NC)C3)cc2[nH]c1=O |
| 5.52 | – | 8.47 | 6.59 | 7.40 | – | CCc1cc2ncc(CN3CCC(Nc4ccc(C(=O)NC)nc4)CC3)cc2[nH]c1=O |
| 5.93 | 4.48 | 9.40 | 7.95 | 7.38 | 7.97 | CCc1cc2ncc(CN3CCc4cc(/C=C/C(=O)NC)ccc4C3)cc2[nH]c1=O |
| – | 4.92 | – | – | – | 9.04 | CCc1cc2ncc(CN3CCN(c4ccc(C(=O)NC)nc4)CC3)cc2[nH]c1=O [SARUPARIB] |
